The source of these data is US11661404B2, “Prodrug compounds activated by AKR1C3 and their use for treating hyperproliferative disorders” (priority 2018, dated 2023).

In this experiment the target is T1, recombinant human AKR1C3 (Homo sapiens, UniProt P42330).
T1 construct: His6 (hexahistidine) (C); made in house; host or cells: E. coli BL21(DE3)
T1 sequence (P42330 1-323): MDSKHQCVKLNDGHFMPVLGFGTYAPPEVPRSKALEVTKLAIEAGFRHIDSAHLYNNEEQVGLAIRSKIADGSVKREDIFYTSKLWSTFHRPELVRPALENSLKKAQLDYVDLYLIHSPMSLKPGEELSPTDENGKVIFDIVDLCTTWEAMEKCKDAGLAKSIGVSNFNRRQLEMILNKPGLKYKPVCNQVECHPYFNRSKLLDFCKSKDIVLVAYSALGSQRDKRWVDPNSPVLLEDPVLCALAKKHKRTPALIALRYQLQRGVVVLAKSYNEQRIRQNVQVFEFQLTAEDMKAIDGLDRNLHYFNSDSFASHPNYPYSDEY
Description: Kinetics assay: metabolism of prodrugs by recombinant human AKR1C3. It counts as biochemical. The settings on record: NADPH, pH 7.4, 37° C. Here is the method:
E. coli BL21(DE3) cells expressing the pET22b-AKR1C3 construct with a C-terminal hexahistidine (His6) tag and constitutive promoter was generated. Colonies of these transformed E. coli cells were grown in LB agar medium containing 100 μg/mL of ampicillin. A single colony was picked the following day and grown in 400 mL batches of bacterial medium containing ampicillin (100 μg/mL) at 37° C., with continuous shaking at 200 rpm overnight. Bacterial cultures were pelleted by centrifugation (4000×g, 15 minutes) and resuspended in lysis buffer (10 mL/400 mL culture). The cells were disrupted by sonication (Sonicator 3000, Misonix) and centrifuged at 14,000 rpm for 30 minutes (at 4° C.). The cleared lysate was filtered in successive filters containing pore sizes of 1.20 μm, 0.8 μm and 0.2 μm and loaded onto a nickel-agarose affinity chromatography column on an ÄKTA Purifier system. The column was washed with 20 mL of the lysis buffer and the His6-tagged AKR1C3 protein was eluted with lysis buffer supplemented with 500 mM imidazole. The protein was further purified by a liquid chromatography gel filtration column (Superdex 200 HR16/60) using lysis buffer (supplemented with 5% v/v glycerol) and 1 mM DTT (pH 7.0) at a flow rate of 0.3 mL/min. Protein was monitored by absorbance at 280 nm, and purity of the fractions (1 mL) was assessed by SDS-PAGE. Active fractions containing the purified protein were pooled and concentrated by centrifugation (3,000×g, 4° C.) on a Vivaspin concentrator (MWCO 10,000 cutoff; GE Healthcare). The protein containing solution was supplemented with glycerol (to a final concentration of 15%, v/v) and NADP^+ was added to a final concentration of 2 mM.
Kinetic parameters of compounds of the invention were determined in a 96-well plate format. The 100 mM potassium phosphate buffer used in this assay was made with the following reagents to a pH of 7.4: • 0.5 M K2HPO4— 8.2 mL • 0.5 M KH2PO4— 1.8 mL • BSApowder—25 mg • Milli Q water—40 mL
For the assay, 2 μL of varying substrate concentrations were incubated with 94 μL of the potassium phosphate buffer and 2 μL of 5 mM NADPH for 5 minutes in the pre-warmed (37° C.) plate chamber of a Molecular Devices SpectraMax M2 plate reader. Purified AKR1C3 enzyme (2 μL) was added to a final concentration of […] in each well using an Eppendorf electronic multi-channel pipette. Absorbance measurements were recorded immediately upon addition of enzyme over a period of 5 minutes at a wavelength of 400 nm. Absorbance changes for each compound concentration were plotted against time to obtain the rate of absorbance change over the 5 minute period. The rate of absorbance change was then plotted against the compound concentration and non-linear regression analysis and Michaelis-Menten curve fitting performed on GraphPadPrism (version 5.00 for Windows, GraphPad Software, San Diego Calif. USA) in order to determine kinetic parameters of compounds.
One may read the Km as the concentration of substrate that gives half-maximal velocity. For `CN1CCN(S(=O)(=O)c2cc([N+](=O)[O-])ccc2N(CCBr)CCOS(C)(=O)=O)CC1` [Compound 602, 2-((2-bromoethyl)(2-((4-methylpiperazin-1-yl)sulfonyl)-4-nitrophenyl)amino)ethyl methanesulfonate], the Michaelis-Menten constant (Km) worked out at 33.1 µM.

Usually kcat stands for the number of substrate molecules converted per active site and unit of time at saturation. For `CS(=O)(=O)OCCN(CCBr)c1c(C(=O)NCCO)cc([N+](=O)[O-])cc1[N+](=O)[O-]` [PR-104A, 2-((2-bromoethyl)(2-((2-hydroxyethyl)-carbamoyl)-4,6-dinitrophenyl)amino)ethyl methanesulfonate, reference compound], the Michaelis-Menten constant (Km) came to 72.9 µM and the turnover number (kcat) was found to be 18.7 s⁻¹. Taken in the same sequence, the figures for `CN1CCN(C(=O)c2cc([N+](=O)[O-])ccc2N(CCBr)CCBr)CC1` [SN34118, reference compound] were 9 µM and 18.7 s⁻¹. For `O=[N+]([O-])c1ccc(N(CCBr)CCBr)c(S(=O)(=O)N2CCN(CC(O)CO)CC2)c1` (stereo not shown) [Compound 566, 3-(4-((2-(bis(2-bromoethyl)amino)-5-nitrophenyl)sulfonyl)piperazin-1-yl)propane-1,2-diol], in that order: 32.2 µM and 67.1 s⁻¹.

For the compound `CS(=O)(=O)OCCN(CCBr)c1ccc([N+](=O)[O-])cc1S(=O)(=O)N1CCN(CC(O)CO)CC1` (stereo not shown) [Compound 605, 2-((2-bromoethyl)(2-((4-(2,3-dihydroxypropyl)piperazin-1-yl)sulfonyl)-4-nitrophenyl)amino)ethyl methanesulfonate], the Michaelis-Menten constant (Km) stood at 17.1 µM. As for `CN1CCN(C(=O)c2cc([N+](=O)[O-])ccc2N(CCBr)CCOS(C)(=O)=O)CC1` [SN34454, reference compound], the kcat was determined as 5.2 s⁻¹.

In the case of `CN1CCN(S(=O)(=O)c2cc([N+](=O)[O-])ccc2N(CCOS(C)(=O)=O)CCOS(C)(=O)=O)CC1` [Compound 641, ((2-((4-methylpiperazin-1-yl)sulfonyl)-4-nitrophenyl)azanediyl)bis(ethane-2,1-diyl) dimethanesulfonate], the Michaelis constant (Km) came out at 21.5 µM.
